Reference: US8680111B2 (Pfizer Inc., priority 2012, dated 2014)
pIC50, pKi: −log10 of the molar value.

Legend:
[1] = biological target: T1, L1196M EML4-ALK (NIH-3T3 EML4-ALK v1 L1196M cells) (Homo sapiens, UniProt Q9UM73, L1196M); assay: Cellular phospho-ALK (Tyr1604) ELISA assay for L1196M EML4-ALK; format: cell-based; conditions: NIH-3T3 EML4-ALK v1 L1196M cells, 1 hour, phospho-ALK (Tyr1604); read-out: ELISA assay for L1196M EML4-ALK (IC50)
T1 construct: expressed in transfected cells; the other entry of the earlier key: EML4 (Q9HC35, Echinoderm microtubule-associated protein-like 4)

[2] = biological target: T2, human recombinant wild-type ALK kinase domain (amino acids 1093-1411) (Homo sapiens, UniProt Q9UM73); assay: Wild-type ALK enzyme assay (microfluidic mobility shift); format: biochemical; conditions: ATP 60 μM, competitive inhibition fit, read-out: WT ALK enzyme assay (Ki)
T2 construct: ALK kinase domain (amino acids 1093-1411); made in house
Procedure: The reactions were incubated for 1 h at room temperature, stopped by the addition of 0.1 M EDTA, pH 8, and the extent of reactions (˜15-20% conversion with no inhibitor) was determined after electrophoretic separation of the fluorescently labeled peptide substrate and phosphorylated product on an LabChip EZ Reader II (Caliper Life Sciences, Hopkinton, Mass.).

[3] = biological target: T3, human recombinant L1196M ALK kinase domain (amino acids 1093-1411) (Homo sapiens, UniProt Q9UM73, L1196M); assay: L1196M mutant ALK enzyme assay (microfluidic mobility shift); format: biochemical; conditions: ATP 60 μM, 0.5 nM enzyme, competitive inhibition fit; read-out: L1196M ALK enzyme assay (Ki)
T3 construct: ALK kinase domain (amino acids 1093-1411); made in house

[4] = biological target: T4, WT EML4-ALK (NIH-3T3 EML4-ALK wt v1 cells) (Homo sapiens, UniProt Q9UM73); assay: Cellular phospho-ALK (Tyr1604) ELISA assay for WT EML4-ALK; format: cell-based; conditions: 1 hour, read-out: ELISA assay for WT EML4-ALK (IC50)
T4 construct: expressed in transfected cells; the other entry of the earlier key: EML4 (Q9HC35, Echinoderm microtubule-associated protein-like 4)

| pIC50 [1] | pKi [2] | pKi [3] | pIC50 [4] | Compound |
| --- | --- | --- | --- | --- |
| < 5.00 | 6.84 | 6.09 | 5.68 | 7-amino-3-tert-butyl-1,10,16-trimethyl-16,17-dihydro-1H-8,4-(metheno)-pyrazolo[4,3-g]pyrido[2,3-l][1,4,10]oxadiazacyclotetradecin-15(10H)-one [Example 120] |
| 6.06 | 8.68 | 8.13 | 7.25 | 7-amino-12-fluoro-3-methoxy-1,16,17-trimethyl-16,17-dihydro-1H-8,4-(azeno)pyrazolo[4,3-h][2,5,11]benzoxadiazacyclotetradecin-15(10H)-one [Example 124] |
| 7.31 | 9.96 | 9.31 | 8.64 | 7-amino-12-fluoro-3-methoxy-1,16,17-trimethyl-16,17-dihydro-1H-8,4-(azeno)pyrazolo[4,3-h][2,5,11]benzoxadiazacyclotetradecin-15(10H)-one [Example 125] |
| 6.77 | 9.46 | 8.72 | 7.98 | 12-fluoro-1,14-dimethyl-1,4,5,6,7,8-hexahydro-14H-16,20-(metheno)-pyrazolo[4,3-g][1,14,11]benzodioxazacycloheptadecin-17-amine [Example 95] |
| 8.03 | 9.70 | 8.97 | 9.46 | CCN1Cc2c(c(C)nn2C)-c2cnc(N)c(c2)OC(C)c2cc(F)ccc2C1=O (single isomer, unassigned) [Example 9, 7-amino-16-ethyl-12-fluoro-1,3,10-trimethyl-16,17-dihydro-1H-8,4-(metheno)pyrazolo[4,3-h][2,5,11]benzoxadiazacyclotetradecin-15(10H)-one] |
| 7.56 | > 9.70 | 8.96 | 8.92 | Cc1nn(C)c2c1-c1cnc(N)c(c1)OC(C)c1cc(F)ccc1C(=O)N(C1CC1)C2 (single isomer, unassigned) [Example 11, 7-amino-16-cyclopropyl-12-fluoro-1,3,10-trimethyl-16,17-dihydro-1H-8,4-(metheno)pyrazolo[4,3-h][2,5,11]benzoxadiazacyclotetradecin-15(10H)-one] |
| 6.15 | 8.00 | 7.54 | 7.46 | Cc1nn(C)c2c1-c1cnc(N)c(c1)OC(C)c1cc(F)ccc1C(=O)N(C1CC1)C2 (single isomer, unassigned) [Example 12, 7-amino-16-cyclopropyl-12-fluoro-1,3,10-trimethyl-16,17-dihydro-1H-8,4-(metheno)pyrazolo[4,3-h][2,5,11]benzoxadiazacyclotetradecin-15(10H)-one] |
| 6.96 | > 9.70 | 9.05 | 8.31 | COc1c2c(nn1C)CN(C)C(=O)c1ccc(F)cc1C(C)Oc1cc-2cnc1N (single isomer, unassigned) [Example 19, 7-amino-12-fluoro-3-methoxy-2,10,16-trimethyl-16,17-dihydro-2H-8,4-(metheno)pyrazolo[4,3-h][2,5,11]benzoxadiazacyclotetradecin-15(10H)-one] |
| 8.00 | > 9.70 | 9.54 | 9.11 | CCC1Oc2cc(cnc2N)-c2c(OC)nn(C)c2CN(C)C(=O)c2ccc(F)cc21 (single isomer, unassigned) [Example 23, 7-amino-10-ethyl-12-fluoro-3-methoxy-1,16-dimethyl-16,17-dihydro-1H-8,4-(metheno)pyrazolo[4,3-h][2,5,11]benzoxadiazacyclotetradecin-15(10H)-one] |
| 7.66 | > 9.70 | 9.25 | 8.87 | COc1nn(C)c2c1-c1cnc(N)c(c1)OC(C1CC1)c1cc(F)ccc1C(=O)N(C)C2 (single isomer, unassigned) [Example 25, 7-amino-10-cyclopropyl-12-fluoro-3-methoxy-1,16-dimethyl-16,17-dihydro-1H-8,4-(metheno)pyrazolo[4,3-h][2,5,11]benzoxadiazacyclotetradecin-15(10H)-one] |
| 6.29 | 8.48 | 7.82 | 7.30 | COc1nn(C)c2c1-c1cnc(N)c(c1)OC(C1CC1)c1cc(F)ccc1C(=O)N(C)C2 (single isomer, unassigned) [Example 26, 7-amino-10-cyclopropyl-12-fluoro-3-methoxy-1,16-dimethyl-16,17-dihydro-1H-8,4-(metheno)pyrazolo[4,3-h][2,5,11]benzoxadiazacyclotetradecin-15(10H)-one] |
| 7.17 | > 9.70 | 9.17 | 8.58 | COc1nccc2c1-c1cnc(N)c(n1)OC(C)c1cc(F)ccc1C(=O)N(C)C2 (single isomer, unassigned) [Example 30, 8-amino-13-fluoro-4-methoxy-11,17-dimethyl-17,18-dihydro-9,5-(azeno)pyrido[3,4-h][2,5,11]benzoxadiazacyclotetradecin-16(11H)-one] |
| 6.18 | 8.22 | 7.80 | 7.27 | COc1nccc2c1-c1cnc(N)c(n1)OC(C)c1cc(F)ccc1C(=O)N(C)C2 (single isomer, unassigned) [Example 31, 8-amino-13-fluoro-4-methoxy-11,17-dimethyl-17,18-dihydro-9,5-(azeno)pyrido[3,4-h][2,5,11]benzoxadiazacyclotetradecin-16(11H)-one] |
| 8.27 | > 9.70 | > 10.00 | 9.08 | CC1Oc2nc(cnc2N)-c2c(nn(C)c2C#N)CN(C)C(=O)c2ccc(F)cc21 (single isomer, unassigned) [Example 32, 7-amino-12-fluoro-2,10,16-trimethyl-15-oxo-10,15,16,17-tetrahydro-2H-8,4-(azeno)pyrazolo[4,3-h][2,5,11]benzoxadiazacyclotetradecine-3-carbonitrile] |
| 6.53 | 8.92 | 7.99 | 8.32 | CC1Oc2cc(cnc2N)-c2c(nn(C)c2C#N)CN(C)C(=O)c2c(F)cccc21 (single isomer, unassigned) [Example 52, 7-amino-14-fluoro-2,10,16-trimethyl-15-oxo-10,15,16,17-tetrahydro-2H-8,4-(metheno)pyrazolo[4,3-h][2,5,11]benzoxadiazacyclotetradecine-3-carbonitrile] |
| 8.06 | 9.92 | 9.89 | 8.71 | CC1Cc2cc(cnc2N)-c2c(nn(C)c2C#N)CN(C)C(=O)c2ccc(F)cc21 (single isomer, unassigned) [Example 63, 7-amino-12-fluoro-2,10,16-trimethyl-15-oxo-2,9,10,15,16,17-hexahydro-8,4-(metheno)pyrazolo[3,4-d][2,8]benzodiazacyclotetradecine-3-carbonitrile] |
| 5.92 | 7.46 | 7.48 | 6.39 | CC1Cc2cc(cnc2N)-c2c(nn(C)c2C#N)CN(C)C(=O)c2ccc(F)cc21 (single isomer, unassigned) [Example 64, 7-amino-12-fluoro-2,10,16-trimethyl-15-oxo-2,9,10,15,16,17-hexahydro-8,4-(metheno)pyrazolo[3,4-d][2,8]benzodiazacyclotetradecine-3-carbonitrile] |
| 6.50 | 9.06 | 8.01 | 8.03 | COc1nn(C)c2c1-c1cnc(N)c(c1)OC(C)c1cccnc1C(=O)N(C)C2 (single isomer, unassigned) [Example 65, 7-amino-3-methoxy-1,10,16-trimethyl-16,17-dihydro-1H-8,4-(metheno)-pyrazolo[4,3-g]pyrido[2,3-l][1,4,10]oxadiazacyclotetradecin-15(10H)-one] |
| 5.57 |  | 7.85 | 6.81 | CN1Cc2ccccc2-c2cnc(N)c(c2)OCc2cc(F)ccc2C1=O [Example 7, 8-amino-3-fluoro-17-methyl-16,17-dihydro-7,11-(metheno)dibenzo[g,l]-[1,4,10]oxadiazacyclotetradecin-18(5H)-one] |
| 6.68 | 9.54 | 8.44 |  | CCc1noc2c1-c1cnc(N)c(n1)O[C@H](C)c1cc(F)ccc1C(=O)N(C)C2 [Example 47, (10R)-7-amino-3-ethyl-12-fluoro-10,16-dimethyl-16,17-dihydro-8,4-(azeno)[1,2]oxazolo[4,5-h][2,5,11]benzoxadiazacyclotetradecin-15(10H)-one] |
|  | 8.52 | 7.69 |  | CC(C)Cn1nnc2c1-c1cnc(N)c(c1)O[C@H](C)c1cc(F)ccc1C(=O)N(C)C2 [Example 134, (10R)-7-amino-12-fluoro-10,16-dimethyl-3-(2-methylpropyl)-16,17-dihydro-3H-8,4-(metheno)[1,2,3]triazolo[4,5-h][2,5,11]benzoxadiazacyclotetradecin-15(10H)-one] |
| 5.64 | 8.21 | 7.14 |  | C[C@H]1Oc2cc(cnc2N)-c2c(nnn2C2CC2)CN(C)C(=O)c2ccc(F)cc21 [Example 137, (10R)-7-amino-3-cyclopropyl-12-fluoro-10,16-dimethyl-16,17-dihydro-3H-8,4-(metheno)[1,2,3]triazolo[4,5-h][2,5,11]benzoxadiazacyclotetradecin-15(10H)-one] |
